# Results: ChEMBL document CHEMBL1158746, “Structures and aldose reductase inhibitory effects of bromophenols from the red alga Symphyocladia latiuscula” (J Nat Prod, 2005)
# Target: Aldo-keto reductase family 1 member B1 (Homo sapiens, UniProt P15121)
# Test: Inhibition of human muscle recombinant aldose reductase by spectrophotometry
# Parameters: species or system Muscle tissue
row,Structure (SMILES),IC50
1,Oc1c(O)c(Br)c(Cc2c(Br)c(O)c(O)c(Br)c2Br)c(Br)c1Br,567 nM
2,Oc1cc(Br)c(COCc2c(Br)c(O)c(O)c(Br)c2Br)c(Br)c1O,167 nM
3,Oc1c(Br)cc(Cc2c(Br)c(O)c(O)c(Br)c2Br)c(Br)c1O,638 nM

# The remaining lines, values ahead:
row,IC50,Structure (SMILES)
1,3190 nM,Cc1c(Br)c(O)c(O)c(Br)c1Br
2,667 nM,O=Cc1c(Br)c(O)c(O)c(Br)c1Br
